Counter-ions that a name gives are not always drawn.
Tests used:
[1] = target: T1, human dopamine D3 receptors (Homo sapiens, UniProt P35462); experiment: Dopamine D3 receptor binding, displacement of [125I]-iodosulpride; settings: membranes from HEK-293 cells with stably expressed human D3 receptors, 0.1 nM [125I]-iodosulpride
T1 construct: expressed in transfected cells
Description: (§1) The substance to be tested was dissolved either in methanol/Chremophor® (BASF-AG) or in dimethyl sulfoxide and then diluted with water to the desired concentration.
(§2) Triplicate mixtures were carried out.
The incubation buffer contained 50 mM Tris, 120 mM NaCl, 5 mM KCl, 2 mM CaCl2, 2 mM MgCl2 and 0.1% bovine serum albumin, 10 μM quinolone, 0.1% ascorbic acid (prepared fresh each day). The buffer was adjusted to pH 7.4 with HCl.
(§3) Measurement and Evaluation:
(§4) After incubation at 25° C. for 60 minutes, the mixtures were filtered under vacuum through Whatman GF/B glass fiber filters using a cell harvester. The filters were transferred by a filter transfer system into scintillation vials. After addition of 4 ml of Ultima Gold® (Packard), the samples were shaken for one hour and then the radioactivity was calculated in a beta counter (Packard, Tricarb 2000 or 2200CA). The cp values were converted into dpm by means of a standard quench series with the aid of the instrument's own program.
(§5) Evaluation of the inhibition plots took place by iterative nonlinear regression analysis using the Statistical Analysis System (SAS) similar to the “LIGAND” program described by Munson and Rodbard.

[2] = target: T2, human dopamine D2L receptors (long isoform) (Homo sapiens, UniProt P14416); experiment: Dopamine D2L receptor binding, displacement of [125I]-iodospiperone; settings: *Ki(D2L)/Ki(D3), HEK-293 membranes, 0.01 nM [125I]-iodospiperone
T2 construct: expressed in transfected cells
Description: as §1, §2
The incubation buffer contained 50 mM Tris, 120 mM NaCl, 5 mM KCl, 2 mM CaCl2, 2 mM MgCl2 and 0.1% bovine serum albumin. The buffer was adjusted to pH 7.4 with HCl.
as §3, §4, §5

T1 sequence (P35462 whole entry): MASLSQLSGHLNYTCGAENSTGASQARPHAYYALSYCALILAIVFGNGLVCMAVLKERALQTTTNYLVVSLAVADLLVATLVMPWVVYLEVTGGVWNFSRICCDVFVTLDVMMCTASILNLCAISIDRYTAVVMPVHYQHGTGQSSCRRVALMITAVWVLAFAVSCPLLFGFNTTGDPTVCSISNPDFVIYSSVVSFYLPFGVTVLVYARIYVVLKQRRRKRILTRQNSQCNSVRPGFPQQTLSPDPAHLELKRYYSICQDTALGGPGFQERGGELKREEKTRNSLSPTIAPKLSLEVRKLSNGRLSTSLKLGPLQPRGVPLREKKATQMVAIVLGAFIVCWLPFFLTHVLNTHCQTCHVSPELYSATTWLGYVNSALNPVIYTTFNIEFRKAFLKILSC
T2 sequence (P14416 whole entry, canonical isoform): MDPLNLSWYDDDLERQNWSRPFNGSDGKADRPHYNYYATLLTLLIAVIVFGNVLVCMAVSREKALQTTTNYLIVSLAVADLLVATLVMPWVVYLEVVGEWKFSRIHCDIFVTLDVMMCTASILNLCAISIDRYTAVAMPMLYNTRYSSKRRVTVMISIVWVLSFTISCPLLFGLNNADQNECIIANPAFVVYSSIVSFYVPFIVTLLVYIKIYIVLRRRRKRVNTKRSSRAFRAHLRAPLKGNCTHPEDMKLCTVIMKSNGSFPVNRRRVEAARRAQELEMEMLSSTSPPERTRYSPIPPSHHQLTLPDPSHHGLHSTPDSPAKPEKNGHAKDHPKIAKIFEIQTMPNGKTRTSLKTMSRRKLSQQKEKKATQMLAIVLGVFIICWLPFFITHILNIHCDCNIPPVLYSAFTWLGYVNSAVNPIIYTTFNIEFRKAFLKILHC

Ki [1] [nM]	Selectivity D3 vs. D2L* [2]	Structure (SMILES)
1.62	59	CCCc1cc(N2CCN(CCCCn3ccc(C(C)C)nc3=O)CC2)nc(C(C)(C)C)n1 [Example 98, 4-(2-tert-Butyl-6-propylpyrimidin-4-yl)-1-[4-(4-isopropyl-2-oxo-2H-pyrimidin-1-yl)butyl]piperazine 1-fumarate]
0.46	65	Cc1cn(CCCCN2CCN(c3cc(Cl)cc(Cl)c3)CC2)c(=O)[nH]c1=O [Example 119, 1-{4-[4-(3,5-Dichlorophenyl)piperazin-1-yl]butyl}-5-methyl-1H-pyrimidine-2,4-dione]
2.3	80	CCCc1cc(N2CCN(CCCCn3ccc(-c4ccc(C)cc4)nc3=O)CC2)nc(C(C)(C)C)n1 [Example 75, 4-(2-tert-Butyl-6-propylpyrimidin-4-yl)-1-[4-(2-oxo-4-(p-tolyl)-2H-pyrimidin-1-yl)butyl]piperazine 1-fumarate]
2.4	55	Cc1cccc(N2CCN(CCCCn3cc(C)c(=O)[nH]c3=O)CC2)c1C [Example 128, 1-{4-[4-(2,3-Dimethylphenyl)piperazin-1-yl]butyl}-5-methyl-1H-pyrimidine-2,4-dione]
5.5	34	Cc1cc(C)cc(N2CCN(CCCCn3cc(C)c(=O)[nH]c3=O)CC2)c1 [Example 132, 1-{4-[4-(3,5-Dimethylphenyl)piperazin-1-yl]butyl}-5-methyl-1H-pyrimidine-2,4-dione]
1.52	53	CCCc1cc(N2CCN(CCCCn3ccc(C4CCC4)nc3=O)CC2)nc(C(C)(C)C)n1 [Example 74, 1-{4-[4-(2-tert-Butyl-6-propylpyrimidin-4-yl)piperazin-1-yl]butyl}-4-cyclobutyl-1H-pyrimidin-2-one]
0.32	48	O=c1ccn(CCCCN2CCN(c3cccc(Cl)c3Cl)CC2)c(=O)[nH]1 [Example 78, 1-{4-[4-(2,3-Dichlorophenyl)piperazin-1-yl]butyl}-1H-pyrimidine-2,4-dione]
2.97	65	CCCc1cc(N2CCN(C(C)CCCn3cc(C)c(=O)[nH]c3=O)CC2)nc(C(C)(C)C)n1 (single isomer, unassigned; (+)) [Example 63, (+)-1-{4-[4-(2-tert-Butyl-6-propylpyrimidin-4-yl)piperazin-1-yl]pentyl}-5-methyl-1H-pyrimidine-2,4-dione]
25.7	30	Cc1cn(CCCCN2CCN(c3ccc(F)cc3F)CC2)c(=O)[nH]c1=O [Example 131, 1-{4-[4-(2,4-Difluorophenyl)piperazin-1-yl]butyl}-5-methyl-1H-pyrimidine-2,4-dione]
2.32	56	CCCc1cc(N2CCN(CCCCn3cc(F)c(=O)[nH]c3=O)CC2)nc(C(C)(C)C)n1 [Example 53, 1-{4-[4-(2-tert-Butyl-6-propylpyrimidin-4-yl)piperazin-1-yl]butyl}-5-fluoro-1H-pyrimidine-2,4-dione]
1.02	134	CCCc1cc(N2CCN(CCCCn3cc(C(F)(F)F)c(=O)[nH]c3=O)CC2)nc(C(C)(C)C)n1 [Example 56, 1-{4-[4-(2-tert-Butyl-6-propylpyrimidin-4-yl)piperazin-1-yl]butyl}-5-trifluoromethyl-1H-pyrimidine-2,4-dione]
0.65	40	CCCc1cc(N2CCN(CCCCn3ccc(-c4ccsc4)nc3=O)CC2)nc(C(C)(C)C)n1 [Example 93, 1-{4-[4-(2-tert-Butyl-6-propylpyrimidin-4-yl)piperazin-1-yl]butyl}-4-thiophen-3-yl-1H-pyrimidin-2-one]

More lines, now with the values behind:

Structure (SMILES)	Ki [1] [nM]	Selectivity D3 vs. D2L* [2]
CC(C)(C)c1nc(N2CCN(CCCCn3ccc(-c4cccc(F)c4)nc3=O)CC2)cc(C(F)(F)F)n1 [Example 73, 4-(2-tert-Butyl-6-trifluoromethylpyrimidin-4-yl)-1-{4-[4-(3-fluorophenyl)-2-oxo-2H-pyrimidin-1-yl]butyl}piperazin-1-ium fumarate]	9.3	31
CC(C)(C)c1ccn(CCCCN2CCN(c3cc(C(F)(F)F)nc(C(C)(C)C)n3)CC2)c(=O)n1 [Example 14, 4-tert-Butyl-1-(4-{4-[2-tert-butyl-6-(trifluoromethyl)pyrimidin-4-yl]piperazin-1-yl}butyl)pyrimidin-2(1H)-one]	2.62	82
CCCc1cc(N2CCN(CCCCn3cc(C)c(O)nc3=O)CC2)nc(C(C)(C)C)n1 [Example 10, 1-{4-[4-(2-tert-Butyl-6-propylpyrimidin-4-yl)piperazin-1-yl]butyl}-4-hydroxy-5-methylpyrimidin-2(1H)-one]	1.75	97
CCCc1cc(N2CCN(CCCCn3ccc(-c4ccccc4)nc3=O)CC2)nc(C(C)(C)C)n1 [Example 49, 1-{4-[4-(2-tert-Butyl-6-propylpyrimidin-4-yl)piperazin-1-yl]butyl}-4-phenyl-1H-pyrimidin-2-one]	0.54	86
Cc1ccccc1-c1ccn(CCCCN2CCN(c3cc(C(F)(F)F)nc(C(C)(C)C)n3)CC2)c(=O)n1 [Example 60, 4-(2-tert-Butyl-6-trifluoromethylpyrimidin-4-yl)-1-[4-(2-oxo-4-(o-tolyl)-2H-pyrimidin-1-yl)butyl]piperazin-1-ium fumarate]	4.33	91
CCCc1cc(N2CCN(CCCCn3ccc(OCC)nc3=O)CC2)nc(C(C)(C)C)n1 [Example 86, 4-(2-tert-Butyl-6-propylpyrimidin-4-yl)-1-[4-(4-ethoxy-2-oxo-2H-pyrimidin-1-yl)butyl]piperazin-1-ium fumarate]	2.44	43
CC(C)c1ccn(CCCCN2CCN(c3cc(C(F)(F)F)nc(C(C)(C)C)n3)CC2)c(=O)n1 [Example 97, 4-(2-tert-Butyl-6-trifluoromethylpyrimidin-4-yl)-1-[4-(4-isopropyl-2-oxo-2H-pyrimidin-1-yl)butyl]piperazin-1-ium fumarate]	4.26	58
CCCc1cc(N2CCN(CCCCn3ccc(-c4ccc(F)cc4)nc3=O)CC2)nc(C(C)(C)C)n1 [Example 44, 1-{4-[4-(2-tert-Butyl-6-propylpyrimidin-4-yl)piperazin-1-yl]butyl}-4-(4-fluorophenyl)-1H-pyrimidin-2-one]	0.63	158
CC(C)(C)c1nc(C2CCC2)cc(N2CCN(CCCCn3ccc(=O)[nH]c3=O)CC2)n1 [Example 23, 1-{4-[4-(2-tert-Butyl-6-cyclobutylpyrimidin-4-yl)piperazin-1-yl]butyl}pyrimidine-2,4(1H,3H)-dione]	1.51	63
CCCc1cc(N2CCN(CCCCn3cc(CC)c(=O)[nH]c3=O)CC2)nc(C(C)(C)C)n1 [Example 84, 4-(2-tert-Butyl-6-propylpyrimidin-4-yl)-1-[4-(5-ethyl-2,4-dioxo-3,4-dihydro-2H-pyrimidin-1-yl)butyl]piperazin-1-ium fumarate]	0.75	63
CCCc1cc(N2CCN(CCCCn3ccc(C(C)(C)C)nc3=O)CC2)nc(C(C)(C)C)n1.Cl [Example 21, 1-[4-(4-tert-Butyl-2-oxopyrimidin-1 (2H)-yl)butyl]-4-(2-tert-butyl-6-propylpyrimidin-4-yl)piperazin-1-ium chloride]	1.94	96
Cc1cn(CC(C)CCN2CCN(c3cc(C(F)(F)F)nc(C(C)(C)C)n3)CC2)c(=O)[nH]c1=O (centres unmarked) [Example 37, 1-(4-{4-[2-tert-Butyl-6-(trifluoromethyl)pyrimidin-4-yl]piperazin-1-yl}-2-methylbutyl)-5-methylpyrimidine-2,4(1H,3H)-dione]	3.24	126
Cc1cnc(=O)n(CCCCN2CCN(c3cc(C(F)(F)F)nc(C(C)(C)C)n3)CC2)c1 [Example 6, 1-(4-{4-[2-tert-Butyl-6-(trifluoromethyl)pyrimidin-4-yl]piperazin-1-yl}butyl)-5-methylpyrimidin-2(1H)-one]	31.2	35
CC(C)(C)c1nc(N2CCN(CCCCn3cc(F)c(=O)[nH]c3=O)CC2)cc(C(F)(F)F)n1.Cl [Example 16, 1-[2-tert-Butyl-6-(trifluoromethyl)pyrimidin-4-yl]-4-[4-(5-fluoro-2,4-dioxo-3,4-dihydro-pyrimidin-1 (2H)-yl)butyl]piperazin-4-ium chloride]	2.99	201
Cc1cc(N2CCN(CCCCn3cc(C)c(O)nc3=O)CC2)nc(C(C)(C)C)n1 [Example 29, 1-{4-[4-(2-tert-Butyl-6-methylpyrimidin-4-yl)piperazin-1-yl]butyl}-4-hydroxy-5-methylpyrimidin-2(1H)-one]	7.64	67
CC(C)(C)c1nc(N2CCN(CCCCn3cc(Cl)c(=O)[nH]c3=O)CC2)cc(C(F)(F)F)n1 [Example 52, 1-{4-[4-(2-tert-Butyl-6-trifluoromethylpyrimidin-4-yl)piperazin-1-yl]butyl}-5-chloro-1H-pyrimidine-2,4-dione]	2.28	97

Reference: US8008488B2 (Abbott GmbH & Co. KG, priority 2003, dated 2011)
